Measurements taken from patent publication US20240383882A1 (Ecstasy LLC, priority 2020, published 2024).

System: male C57BL/6 mice
Experiment: 55° C. warm-water tail-flick test (antinociception)
Assay type: in vivo
Settings: Mus musculus; half maximal effective dose in mice; using one of: warm water tail-flick test, spared nerve injury, chronic constriction injury, or Complete Freund's adjuvant induced inflammatory pain (not stated which per compound); read-out: Biological Activity (ED50)
Summary of the method: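 Mice with baseline tail-flick latency within 2 s at 55° C received compound s.c. and were retested at 30, 60, 90 and 120 min. % antinociception = 100×(test−control latency)/(20−control latency); ED50 in mg/kg.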

SMILES | ED50 [mg/kg]
Cc1ccc(C(C)(C)N2CC[C@@](CCc3ccc(C#N)cc3)(C(=O)C(F)(F)F)C2)cn1 [Compound 166, (R)-4-(2-(1-(2-(6-methylpyridin-3-yl)propan-2-yl)-3-(2,2,2-trifluoroacetyl)pyrrolidin-3-yl)ethyl) benzonitrile] | ≤ 30
CC(C)(c1ccccn1)N1CC[C@](CO)(CCc2ccc3nonc3c2)C1 [Compound 167, (R)-(3-(2-(benzo[c][1,2,5]oxadiazol-5-yl)ethyl)-1-(2-(pyridin-2-yl)propan-2-yl)pyrrolidin-3-yl)methanol] | ≤ 30
CC(C)(c1ccccn1)N1CC[C@](CO)(CCc2ccc3ccoc3c2)C1 [Compound 168, (R)-(3-(2-(benzofuran-6-yl)ethyl)-1-(2-(pyridin-2-yl)propan-2-yl)pyrrolidin-3-yl)methanol] | ≤ 30
CC(C)(c1ccccn1)N1CC[C@@](CCc2ccc3nonc3c2)(CS(C)(=O)=O)C1 [Compound 169, (R)-5-(2-(3-((methylsulfonyl)methyl)-1-(2-(pyridin-2-yl)propan-2-yl)pyrrolidin-3-yl)ethyl)benzo[c] [1,2,5]oxadiazole] | > 50
CC(C)(c1ccccn1)N1CC[C@@](CCc2ccc3ccoc3c2)(C(N)=O)C1 [Compound 174, (R)-3-(2-(benzofuran-6-yl)ethyl)-1-(2-(pyridin-2-yl)propan-2-yl)pyrrolidine-3-carboxamide] | ≤ 30
CC(C)(c1ccccn1)N1CC[C@](C#N)(CCc2ccc(F)c(F)c2)C1 [Compound 175, (R)-3-(3,4-difluorophenethyl)-1-(2-(pyridin-2-yl)propan-2-yl)pyrrolidine-3-carbonitrile] | > 50
CC(C)(c1ccccn1)N1CC[C@](C#N)(CCc2ccc3nonc3c2)C1 [Compound 178, (R)-3-(2-(benzo[c][1,2,5]oxadiazol-5-yl)ethyl)-1-(2-(pyridin-2-yl)propan-2-yl)pyrrolidine-3-carbonitrile] | > 50
CC(C)(c1ccccn1)N1CC[C@](C#N)(CCc2ccc(C#N)cc2)C1 [Compound 179, (R)-3-(4-cyanophenethyl)-1-(2-(pyridin-2-yl)propan-2-yl)pyrrolidine-3-carbonitrile] | > 50
CC(C)(c1ccccn1)N1CC[C@](C#N)(CCc2ccc3ccoc3c2)C1 [Compound 180, (R)-3-(2-(benzofuran-6-yl)ethyl)-1-(2-(pyridin-2-yl)propan-2-yl)pyrrolidine-3-carbonitrile] | > 50
CC(C)(c1ccccn1)N1CC[C@@](CCc2ccc3nonc3c2)(c2nn[nH]n2)C1 [Compound 181, (R)-5-(2-(1-(2-(pyridin-2-yl)propan-2-yl)-3-(2H-tetrazol-5-yl)pyrrolidin-3-yl)ethyl) benzo[c] [1,2,5]oxadiazole] | > 50
CC(C)(c1ccccn1)N1CC[C@@](CCc2ccc(C#N)cc2)(c2nn[nH]n2)C1 [Compound 182, (R)-4-(2-(1-(2-(pyridin-2-yl)propan-2-yl)-3-(2H-tetrazol-5-yl)pyrrolidin-3-yl)ethyl) benzonitrile] | > 50
CC(C)(c1ccccn1)N1CC[C@@](CCc2ccc3ccoc3c2)(c2nn[nH]n2)C1 [Compound 183, (R)-2-(2-(3-(2-(benzofuran-6-yl)ethyl)-3-(2H-tetrazol-5-yl)pyrrolidin-1-yl)propan-2-yl)pyridine] | > 50
CC(C)(c1ccccn1)N1CC[C@](CO)(CCc2cnc3ccccc3n2)C1 [Compound 184, (R)-(1-(2-(pyridin-2-yl)propan-2-yl)-3-(2-(quinoxalin-2-yl)ethyl)pyrrolidin-3-yl)methanol] | > 50
CC(C)(c1ccccn1)N1CC[C@@](/C=C/c2ccc(C#N)cc2)(c2nn[nH]n2)C1 [Compound 185, (S,E)-4-(2-(1-(2-(pyridin-2-yl)propan-2-yl)-3-(2H-tetrazol-5-yl)pyrrolidin-3-yl)vinyl) benzonitrile] | > 50
CCOC(C(F)(F)F)(C(F)(F)F)[C@]1(/C=C/c2ccc3nonc3c2)CCN(C(C)(C)c2ccc(C)nc2)C1 [Compound 186, (S,E)-5-(2-(3-(2-ethoxy-1,1,1,3,3,3-hexafluoropropan-2-yl)-1-(2-(6-methylpyridin-3-yl)propan-2-yl)pyrrolidin-3-yl)vinyl)benzo[c] [1,2,5]oxadiazole] | ≤ 30
CCOC(C(F)(F)F)(C(F)(F)F)[C@]1(/C=C/c2cnc3ccccc3n2)CCN(C(C)(C)c2ccc(C)nc2)C1 [Compound 187, (S,E)-2-(2-(3-(2-ethoxy-1,1,1,3,3,3-hexafluoropropan-2-yl)-1-(2-(6-methylpyridin-3-yl)propan-2-yl)pyrrolidin-3-yl)vinyl)quinoxaline] | > 50
CC(C)(c1ccccn1)N1CC[C@@](/C=C/c2ccc(C(F)(F)F)o2)(COCc2ccccc2)C1 [Compound 188, (S,E)-2-(2-(3-((benzyloxy)methyl)-3-(2-(5-(trifluoromethyl)furan-2-yl)vinyl)pyrrolidin-1-yl)propan-2-yl)pyridine] | > 50

SMILES | ED50 [mg/kg]
CC(C)(c1ccccn1)N1CC[C@](CO)(CCc2ccc(C(F)(F)F)o2)C1 [Compound 189, (R)-(1-(2-(pyridin-2-yl)propan-2-yl)-3-(2-(5-(trifluoromethyl)furan-2-yl)ethyl)pyrrolidin-3-yl)methano] | > 50
CC(C)(c1ccccn1)N1CC[C@](CO)(CCc2cnc(C(F)(F)F)nc2)C1 [Compound 190, (R)-(1-(2-(pyridin-2-yl)propan-2-yl)-3-(2-(2-(trifluoromethyl)pyrimidin-5-yl)ethyl)pyrrolidin-3-yl)methanol] | > 50
CC(C)(c1ccccn1)N1CC[C@@](CCc2ccc3ccoc3c2)(c2c[nH]nn2)C1 [Compound 191, (R)-2-(2-(3-(2-(benzofuran-6-yl)ethyl)-3-(1H-1,2,3-triazol-4-yl)pyrrolidin-1-yl)propan-2-yl)pyridine] | > 50
CCOC[C@@]1(CCc2ccc(S(C)(=O)=O)cc2)CCN(C(C)(C)c2ccccc2)C1 [Compound 200, (S)-3-(ethoxymethyl)-3-(4-(methylsulfonyl)phenethyl)-1-(2-phenylpropan-2-yl)pyrrolidine] | ≤ 30
CC(C)(c1ccccn1)N1CC[C@@](CCc2ccc(C#N)cc2)(C(=O)NC2(C(F)(F)F)CC2)C1 [Compound 201, (R)-3-(4-cyanophenethyl)-1-(2-(pyridin-2-yl)propan-2-yl)-N-(1-(trifluoromethyl)cyclopropyl) pyrrolidine-3-carboxamide] | ≤ 30
CC(C)(c1ccccn1)N1CC[C@@](CCc2ccc(C#N)cc2)(CNC2(C(F)(F)F)COC2)C1 [Compound 202, (S)-4-(2-(1-(2-(pyridin-2-yl)propan-2-yl)-3-(((3-(trifluoromethyl)oxetan-3-yl)amino)methyl)pyrrolidin-3-yl)ethyl) benzonitrile] | > 50
CC(C)(c1ccccn1)N1CC[C@@](CCc2ccc(C#N)cc2)(CNC2(C(F)(F)F)CC2)C1 [Compound 203, (S)-4-(2-(1-(2-(pyridin-2-yl)propan-2-yl)-3-(((1-(trifluoromethyl)cyclopropyl)amino)methyl)pyrrolidin-3-yl)ethyl) benzonitrile] | > 50
CC(C)(c1ccccn1)N1CC[C@@](CCc2ccc(C#N)cc2)(C(=O)NC2(C(F)(F)F)COC2)C1 [Compound 206, (R)-3-(4-cyanophenethyl)-1-(2-(pyridin-2-yl)propan-2-yl)-N-(3-(trifluoromethyl)oxetan-3-yl)pyrrolidine-3-carboxamide] | ≤ 30
CC(C)(c1ccccn1)N1CC[C@@](CCc2ccc(C#N)cc2)(C(=O)Nc2ccc(F)cn2)C1 [Compound 207, (R)-3-(4-cyanophenethyl)-N-(5-fluoropyridin-2-yl)-1-(2-(pyridin-2-yl)propan-2-yl)pyrrolidine-3-carboxamide] | ≤ 30
CC(C)(c1ccccn1)N1CC[C@@](CCc2ccc(C#N)cc2)(C(=O)NC2(C#N)COC2)C1 [Compound 208, (R)-N-(3-cyanooxetan-3-yl)-3-(4-cyanophenethyl)-1-(2-(pyridin-2-yl)propan-2-yl)pyrrolidine-3-carboxamide] | ≤ 30
CC(C)(c1ccccn1)N1CC[C@@](CCc2ccc(C#N)cc2)(CNC2(C#N)COC2)C1 [Compound 209, (S)-3-(((3-(4-cyanophenethyl)-1-(2-(pyridin-2-yl)propan-2-yl)pyrrolidin-3-yl)methyl)amino) oxetane-3-carbonitrile] | > 50
CC(C)(c1ccccc1)N1CC[C@](CCc2ccc(S(C)(=O)=O)cc2)([C@@H](O)C(F)(F)F)C1 [Compound 212, (R)-2,2,2-trifluoro-1-((S)-3-(4-(methylsulfonyl)phenethyl)-1-(2-phenylpropan-2-yl)pyrrolidin-3-yl)ethan-1-ol] | ≤ 30
CC(C)(c1ccccn1)N1CC[C@](CO)(CCc2ccc(F)cc2)C1 [Compound 215, (R)-(3-(4-fluorophenethyl)-1-(2-(pyridin-2-yl)propan-2-yl)pyrrolidin-3-yl)methanol] | > 50
CCOC[C@]1(CCc2ccc(S(C)(=O)=O)cc2)CCN(C(C)(C)c2ccc(Cl)cc2)C1 [Compound 221, (R)-1-(2-(4-chlorophenyl)propan-2-yl)-3-(ethoxymethyl)-3-(4-(methylsulfonyl)phenethyl) pyrrolidine] | > 50
CC(C)(c1ccccn1)N1CC[C@](CCc2ccc(C#N)cc2)(c2ncc[nH]2)C1 [Compound 225, (S)-4-(2-(3-(1H-imidazol-2-yl)-1-(2-(pyridin-2-yl)propan-2-yl)pyrrolidin-3-yl)ethyl) benzonitrile] | > 50
CC(C)(c1ccc(F)cn1)N1CC[C@@](CO)(CCc2ccc(C#N)cc2)C1 [Compound 226, (S)-4-(2-(1-(2-(5-fluoropyridin-2-yl)propan-2-yl)-3-(hydroxymethyl)pyrrolidin-3-yl)ethyl) benzonitrile] | > 50
